Measured values published in PMC12495443, “Developing inhibitors of the guanosine triphosphate hydrolysis accelerating activity of Regulator of G protein Signaling-14 [drawing 1]” (The Journal of Biological Chemistry, 2025).
Substitutions are numbered along the chain they refer to. Entries after “also recorded” stand apart in the source; their conditions may differ.

Key:
[1] = target: T1, human RGS12 RGS-box (wild-type) (Homo sapiens, UniProt O14924); experiment: Transcreener GDP RGScreen fluorescence polarization assay of RGS12 RGS-box GAP activity on Gαi1(DM); format: biochemical; conditions: wild-type RGS12 RGS-box GAP activity, Gαi1(DM), read-out: RGS12 pIC50 (converted)
T1 construct: human RGS12 RGS-box (aa 695–843 of UniProt O14924); host or cells: E. coli
T1 sequence (O14924 695-843): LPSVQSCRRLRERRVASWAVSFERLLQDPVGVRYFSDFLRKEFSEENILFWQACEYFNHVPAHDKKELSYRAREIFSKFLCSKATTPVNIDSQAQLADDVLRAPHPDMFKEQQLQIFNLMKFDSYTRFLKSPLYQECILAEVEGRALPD
Text: We previously described work with BellBrook Labs creating the Transcreener GDP RGScreen fluorescence polarization assay of steady-state GTP hydrolysis, leveraging a double point-mutant in the Gα enzyme to make GTP hydrolysis, rather than GDP (product) release, the rate-limiting step for multiple rounds of GTP conversion ([57], [59]). […] Titrating inputs of the double point-mutant (“DM”) Gαi1 and RGS-box recombinant proteins (Fig. S2, B and C) established a robust, medium-throughput assay for evaluating potential RGS14 and RGS12 inhibitors, with “assay quality” Z′ scores ([60]) above 0.76 for each target (Fig. S2D).
Reagents and protocols for the fluorescence anisotropy-based Transcreener GDP RGScreen assay using a rate-altered, double point-mutant, recombinant Gαi1 protein have been extensively described previously ([43], [44]); reactions were always performed so that total GTP converted over the time course was consistently less than 10% of reaction maximum input. Specific methods for its application in assessing RGS14 and RGS12 GAP activity are summarized as follows. Open-reading frames (ORFs) encoding wild-type versions of the human RGS14 RGS-box (aa 46–195 of UniProt O43566) and human RGS12 RGS-box (aa 695–843 of UniProt O14924) were each sub-cloned in-frame with an N-terminal hexahistidine (His6) expression tag in the plasmid pET30a, expressed in E. coli cultures, and then purified by nickel-nitriloacetate (Ni-NTA) and size-exclusion (Superdex 200) column chromatographies by GenScript using previously described methods ([35]). These recombinant His6-tag fusion proteins were stored at −80 °C in storage buffer (150 mM NaCl, 50 mM Tris-HCl pH 8.0, 10% glycerol) before thawing and use. Cysteine-less versions were similarly produced by ORF site-directed mutagenesis: for RGS14, codons for cysteine residues 47 and 130 (numbered as in PDB id 2JNU) were replaced with serine codons; for RGS12, codons for cysteines 4, 51, 78, and 134 (numbered in relation to PDB id 2EBZ) were replaced with serine codons. Use of Transcreener GDP-detection reagents to assess compound inhibition of Naegleria fowleri Gα7 protein GTPase activity ([83]) has previously been described ([84]).

[2] = target: T2, human RGS14 RGS-box (wild-type) (Homo sapiens, UniProt O43566); experiment: Transcreener GDP RGScreen fluorescence polarization assay of RGS14 RGS-box GAP activity on Gαi1(DM); format: biochemical; conditions: for IC50: wild-type RGS14 RGS-box GAP activity, Gαi1(DM), Transcreener GDP RGScreen, read-out: RGS14 pIC50 (converted)
T2 construct: human RGS14 RGS-box (aa 46–195 of UniProt O43566); host or cells: E. coli
T2 sequence (O43566 46-195): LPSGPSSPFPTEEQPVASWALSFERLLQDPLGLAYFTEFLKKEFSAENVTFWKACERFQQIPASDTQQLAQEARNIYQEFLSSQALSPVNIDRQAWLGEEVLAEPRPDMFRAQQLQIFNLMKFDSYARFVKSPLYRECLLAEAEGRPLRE
In short: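 Steady-state GTP hydrolysis by rate-altered double point-mutant Gαi1 was read by Transcreener GDP fluorescence polarization, with GTP conversion kept below 10% of maximum input. The E. coli-expressed, N-terminal His6-tagged wild-type RGS-boxes were RGS12 aa 695–843 and RGS14 aa 46–195.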

THP-1 cell line = experiment: Cytotoxicity assays (CytoTox-Glo, CytoTox 96); format: cell-based; conditions: THP-1 cells, overnight, CytoTox-Glo and CytoTox 96
Method: To evaluate cellular toxicity of active compounds, we employed the immortalized human monocytic THP1-Dual cell line (InvivoGen) in two orthogonal cytotoxicity assays: ATP-dependent luminescence (CytoTox-Glo) and colorimetric lactate dehydrogenase (LDH) release (CytoTox 96). For each assay, compounds were serially diluted 2-fold starting at 250 μM and added to 96-well flat-bottom tissue culture plates (Thermo Scientific Nunc, Cat# 165306). THP1-Dual cells were then seeded at 20,000 to 30,000 cells per well in 100 μl RPMI 1640 media supplemented with 10% fetal bovine serum (Gibco). Plates were gently mixed and incubated overnight at 37 °C in a humidified 5% CO2 incubator. For the CytoTox-Glo assay (Promega, Cat# G9291), 50 μl of assay reagent was added to each well. Plates were mixed briefly, sealed, and incubated at room temperature for 15 min before reading luminescence on a TECAN Infinite M1000 Pro plate reader to quantify dead-cell signal. Subsequently, 50 μl of a digitonin-containing lysis solution was added to each well, followed by a second luminescence read after 15 min to assess total cell content. Percent cytotoxicity was calculated per manufacturer instructions. For the CytoTox 96 Non-Radioactive Cytotoxicity Assay (Promega, Cat# G1780), after overnight compound treatment, LDH release into the culture medium was measured by adding the provided substrate mix. Absorbance was read at 490 or 492 nm within 1 h of adding the stop solution. Assay optimization and data normalization were conducted according to the manufacturer’s technical manual.

[3] = target: T3, RGS14 RGS-box (GAP activity on wild-type Gαi1) (Homo sapiens, UniProt O43566); experiment: Single-turnover [γ-33P]GTP hydrolysis assay of RGS-box GAP activity; format: biochemical; conditions: wild-type Gαi1, concentration-dependent
T3 sequence (O43566 67-184 limits assumed): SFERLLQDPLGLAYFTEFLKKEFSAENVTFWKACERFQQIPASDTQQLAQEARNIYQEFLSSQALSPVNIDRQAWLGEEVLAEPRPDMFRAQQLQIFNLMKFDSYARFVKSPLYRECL
Text: To further evaluate the functional activity of these triazolothiadiazine derivatives, and especially to eliminate concerns of misascribing GAP-inhibitory activity to potential assay interference, we tested two representative compounds—Z55660043 and Z55627844—in the gold-standard single-turnover radioactive GTP hydrolysis assay ([7], [58]) (Fig. 6).
The single-turnover radiolabeled-GTP hydrolysis assay is the gold standard assay for RGS-box GAP activity, first described using [γ -^32P]GTP by Berman et al. ([7]) and recently modified for modern performance ([91], [92], [93], [94]) to use readily available [γ-^33P]GTP substrate and perchloric acid quenching. The assay was performed by first pre-loading wild-type (WT) Gα protein (i.e., 750 nM purified, recombinant, wild-type-sequence human Gαi1 protein) with a slight excess (1 μM) of [γ-^33P]GTP for 15 min at 30 °C. Assay initiation involved adding purified recombinant RGS protein previously pre-incubated for 30 min at 30 °C with a candidate inhibitor. […] Supernatant aliquots were then added to liquid scintillation fluid and [^33P]-Pi content (i.e., hydrolyzed GTP) was quantified with a scintillation counter with an appropriate β-transmission window.

[4] = target: T4, cysteine-less RGS12 RGS-box protein (Homo sapiens, UniProt O14924, C701S/C748S/C775S/C831S); experiment: Transcreener GDP RGScreen assay with cysteine-less RGS12 RGS-box; format: biochemical; conditions: range given jointly for cysteine-less RGS14 and RGS12 proteins; read-out: estimated IC50, cysteine-less RGS12 RGS-box
T4 construct: human RGS12 RGS-box (aa 695–843 of UniProt O14924); host or cells: E. coli
T4 sequence (O14924 695-843 C701S/C748S/C775S/C831S): T1 sequence (O14924 695-843) with C7S, C54S, C81S, C137S
Text: (§1) Given the earlier experience with screening hit CCG-4986 being a covalent modifier of RGS4 cysteine residues ([35]), we sought to exclude protein-thiol reactivity as a potential mechanism of action of the active compounds derived from the AtomNet virtual screening effort ([55]) and SAR campaign follow-ups. To address this possibility and screen out thiol-reactive hits, cysteine-lacking versions of recombinant proteins spanning the RGS-boxes of RGS14 and RGS12 were purified from E. coli cultures.
Reagents and protocols for the fluorescence anisotropy-based Transcreener GDP RGScreen assay using a rate-altered, double point-mutant, recombinant Gαi1 protein have been extensively described previously ([43], [44]); reactions were always performed so that total GTP converted over the time course was consistently less than 10% of reaction maximum input. […] Open-reading frames (ORFs) encoding wild-type versions of the human RGS14 RGS-box (aa 46–195 of UniProt O43566) and human RGS12 RGS-box (aa 695–843 of UniProt O14924) were each sub-cloned in-frame with an N-terminal hexahistidine (His6) expression tag in the plasmid pET30a, expressed in E. coli cultures, and then purified by nickel-nitriloacetate (Ni-NTA) and size-exclusion (Superdex 200) column chromatographies by GenScript using previously described methods ([35]). […]

[5] = target: T1, human RGS12 RGS-box (wild-type); design: method as in earlier work; conditions: Transcreener GDP RGScreen; ref (8); cited from earlier work
[6] = target: T2, human RGS14 RGS-box (wild-type); design: method as in earlier work; conditions: Transcreener GDP RGScreen; ref (8); cited from earlier work
[7] = target: T5, cysteine-less RGS14 RGS-box protein (Homo sapiens, UniProt O43566, C100S/C183S); experiment: Transcreener GDP RGScreen assay with cysteine-less RGS14 RGS-box; format: biochemical; conditions: range given jointly for cysteine-less RGS14 and RGS12 proteins; read-out: estimated IC50, cysteine-less RGS14 RGS-box
T5 construct: human RGS14 RGS-box (aa 46–195 of UniProt O43566); host or cells: E. coli
T5 sequence (O43566 46-195 C100S/C183S): T2 sequence (O43566 46-195) with C55S, C138S
Text: as §1
Reagents and protocols for the fluorescence anisotropy-based Transcreener GDP RGScreen assay using a rate-altered, double point-mutant, recombinant Gαi1 protein have been extensively described previously ([43], [44]); reactions were always performed so that total GTP converted over the time course was consistently less than 10% of reaction maximum input. Specific methods for its application in assessing RGS14 and RGS12 GAP activity are summarized as follows. Open-reading frames (ORFs) encoding wild-type versions of the human RGS14 RGS-box (aa 46–195 of UniProt O43566) and human RGS12 RGS-box (aa 695–843 of UniProt O14924) were each sub-cloned in-frame with an N-terminal hexahistidine (His6) expression tag in the plasmid pET30a, expressed in E. coli cultures, and then purified by nickel-nitriloacetate (Ni-NTA) and size-exclusion (Superdex 200) column chromatographies by GenScript using previously described methods ([35]). […]
Supplementary Figure S5. […] (A,B) Recombinant, cysteine residue-lacking (“-cys”) RGS14 RGS-box protein (panel A) and cysteine residue-lacking RGS12 RGS-box protein ([…]) were both observed, in a concentration-dependent fashion (indicated in ng/µL by color), to increase steady-state GDP production by 0.5 ng/µL Gai1(DM) protein in a 20 µL final reaction volume, as measured by the Transcreener® GDP-detection RGScreen™ assay and detected by the change in polarization (ΔmP) at each indicated time point (“enz” = Gai1(DM) protein a.k.a. […]

With COc1ccc(OCc2nnc3n2N=C(c2cc4ccccc4o2)CS3)cc1 [Z55627844] the IC50 [1] was 21.9 µM, the “Ratio (RGS14 pIC50 / RGS12 pIC50)” value ([2]; values > 1.0 reflect RGS14 selectivity) was 1.17 and the IC50 [2] was 3.63 µM. For the same compound, the cytotoxicity (THP-1 cell line) was “without measurable cytotoxicity; also recorded: no overt cytotoxicity” and the “inhibition of RGS14 RGS-box-mediated acceleration of [γ-33P]GTP hydrolysis” value [3] was “inhibit RGS14 RGS-box-mediated acceleration”.

For COc1ccc2[nH]c(SC(C)C(=O)c3c(F)cc(F)cc3F)nc2c1 (stereo not shown) [Z1098346112, 2-[(5-methoxy-1H-1,3-benzodiazol-2-yl)sulfanyl]-1-(2,4,6-trifluorophenyl)propan-1-one], the IC50 [2] is given as 63.1 µM, the IC50 [4] is given as 26 to 64 µM and the “estimated pIC50 RGS12” value [5] is given as 4.4. The “estimated pIC50RGS14” value [6] was 4.2 and the IC50 [7] was 26 to 64 µM.
